The target in assay [1] is Adenosine receptor A1 (Homo sapiens) (UniProt P30542). The conditions noted are these: Compound concentration 10.0 uM.
Assay [2] addresses T1, Muscarinic acetylcholine receptor M4 (Homo sapiens) (UniProt P08173).
T1 sequence (whole entry): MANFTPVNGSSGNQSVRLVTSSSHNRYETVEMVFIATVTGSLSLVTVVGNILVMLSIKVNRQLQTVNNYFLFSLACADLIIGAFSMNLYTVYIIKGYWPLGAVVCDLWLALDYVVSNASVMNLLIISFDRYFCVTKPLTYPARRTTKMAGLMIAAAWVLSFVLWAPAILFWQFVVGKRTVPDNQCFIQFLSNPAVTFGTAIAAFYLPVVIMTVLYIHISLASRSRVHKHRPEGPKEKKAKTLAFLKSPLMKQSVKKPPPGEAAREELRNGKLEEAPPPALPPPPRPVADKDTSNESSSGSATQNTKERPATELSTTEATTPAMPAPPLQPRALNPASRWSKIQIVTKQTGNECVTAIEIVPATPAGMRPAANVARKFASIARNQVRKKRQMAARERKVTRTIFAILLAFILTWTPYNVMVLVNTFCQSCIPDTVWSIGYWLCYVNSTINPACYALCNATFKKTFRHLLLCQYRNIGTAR
The settings on record: Compound concentration 10.0 uM.

Sequence of Adenosine receptor A1 (Homo sapiens) (P30542 whole entry): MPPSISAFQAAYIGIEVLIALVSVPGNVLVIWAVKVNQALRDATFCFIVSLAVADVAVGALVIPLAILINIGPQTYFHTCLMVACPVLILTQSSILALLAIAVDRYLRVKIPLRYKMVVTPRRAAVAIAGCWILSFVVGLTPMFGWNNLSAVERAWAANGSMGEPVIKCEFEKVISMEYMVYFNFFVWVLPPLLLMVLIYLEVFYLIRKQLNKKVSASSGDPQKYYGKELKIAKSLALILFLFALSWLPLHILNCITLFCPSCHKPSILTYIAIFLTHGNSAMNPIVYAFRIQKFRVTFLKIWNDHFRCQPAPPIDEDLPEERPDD

Broadly, the inhibition is how much of the control response was suppressed. Turning to `COCCOc1nc(-c2ccc(Cl)nc2)nc2c1CN(C(=O)c1ncn3ccccc13)CC2` [THPP-1], the inhibition was 37% in assay [1] and 5% in assay [2].

For the origin of these results see ChEMBL document CHEMBL4507293 (2021).
